From ChEMBL document CHEMBL3044894, “QSAR studies on a number of pyrrolidin-2-one antiarrhythmic arylpiperazinyls” (2012)

System: Rattus norvegicus
Assay: Antiarrhythmic activity in anaesthetized rat assessed as inhibition of adrenaline-induced arrhythmia
Format: functional, Heart

Structure (SMILES)	pED50
CCOc1ccccc1N1CCN(CC(O)CN2CCC(c3ccccc3)(c3ccccc3)C2=O)CC1 (stereo not drawn)	2.66
COc1ccccc1N1CCN(CC(O)CN2CCC(c3ccccc3)(c3ccccc3)C2=O)CC1 (stereo not drawn)	2.37
O=C1N(CC(O)CN2CCN(c3ccccc3C(F)(F)F)CC2)CCC1(c1ccccc1)c1ccccc1 (stereo not drawn)	2.13
Cc1ccccc1N1CCN(CC(O)CN2CCC(c3ccccc3)(c3ccccc3)C2=O)CC1 (stereo not drawn)	2.53
O=C1N(CC(O)CN2CCN(c3ccccc3)CC2)CCC1(c1ccccc1)c1ccccc1 (stereo not drawn)	2.38
COc1ccc(Cl)cc1N1CCN(CC(O)CN2CCCC2=O)CC1 (stereo not drawn)	1.48
CCNC(=O)OC(CN1CCN(c2ccccc2OC)CC1)CN1CCCC1=O (stereo not drawn)	1.92
COc1ccccc1N1CCN(CC(CN2CCCC2=O)OC(=O)NC(C)C)CC1 (stereo not drawn)	2.19
CCCNC(=O)OC(CN1CCN(c2ccccc2OC)CC1)CN1CCCC1=O (stereo not drawn)	1.52
CCCC(=O)OC(CN1CCN(c2ccccc2OC(C)C)CC1)CN1CCCC1=O (stereo not drawn)	1.77
CC(C)NC(=O)OC(CN1CCN(c2ccccc2Cl)CC1)CN1CCCC1=O (stereo not drawn)	2
CCNC(=O)OC(CN1CCN(c2ccccc2)CC1)CN1CCCC1=O (stereo not drawn)	1.66
CC(C)C(=O)OC(CN1CCN(c2ccccc2)CC1)CN1CCCC1=O (stereo not drawn)	1.88
O=C(NCc1ccccc1)OC(CN1CCN(c2ccccc2)CC1)CN1CCCC1=O (stereo not drawn)	1.47
CCCNC(=O)OC(CN1CCN(c2ccccc2)CC1)CN1CCCC1=O (stereo not drawn)	1.52
O=C1CCCN1CCCN1CCN(c2ccccc2O)CC1	1.36
O=C1CCCN1CCCN1CCN(c2ccccc2)CC1	2.01

Structure (SMILES)	pED50
COc1ccccc1N1CCN(CCCN2CCCC2=O)CC1	1.79
O=C1CCCN1CCCN1CCN(c2ccccc2Cl)CC1	1.8
O=C1CCCN1CCCN1CCN(c2ccccc2F)CC1	1.54
CCOc1ccccc1N1CCN(CCCN2CCCC2=O)CC1	2.52
O=C1CCCN1CCCN1CCN(c2cccc(C(F)(F)F)c2)CC1	1.45
COc1ccccc1N1CCN(CC(O)CN2CCCC2=O)CC1 (stereo not drawn)	1.43
O=C1CCCN1CC(O)CN1CCN(c2ccc(Cl)cc2)CC1 (stereo not drawn)	1.4
O=C1CCCN1CC(O)CN1CCN(c2ccccc2F)CC1 (stereo not drawn)	1.79
COc1cccc(N2CCN(CC(O)CN3CCCC3=O)CC2)c1 (stereo not drawn)	1.64
CCOc1ccccc1N1CCN(CC(O)CN2CCCC2=O)CC1 (stereo not drawn)	1.97
Cc1ccccc1N1CCN(CC(O)CN2CCCC2=O)CC1 (stereo not drawn)	1.55
O=C1CCCN1CC(O)CN1CCN(c2ccccc2O)CC1 (stereo not drawn)	2.23
CC(C)Oc1ccccc1N1CCN(CC(O)CN2CCCC2=O)CC1 (stereo not drawn)	1.77
O=C1CCCN1CC(O)CN1CCN(c2ccccc2C(F)(F)F)CC1 (stereo not drawn)	1.31
O=C1CCCN1CC(O)CN1CCN(c2ccc(F)cc2F)CC1 (stereo not drawn)	1.54
O=C1CCCN1CC(O)CN1CCN(c2ccccc2)CC1 (stereo not drawn)	1.6
